The conditions of data set [1]: value marked with footnote a (footnote not given); cited from earlier work.
The conditions of data set [2]: 3.0-T, Water; value marked with footnote a (footnote not given); cited from earlier work.
Data set [3] can be described thus: Hydrophilicity (log P).
Description: The Log P value is a value for evaluating the hydrophilicity. When the P value is smaller than 1, the Log P value becomes negative to indicate the hydrophilicity. When the P value is greater than 1, the Log P value becomes positive to indicate lipophilicity.
The nature of data set [4]: Relaxability (r1 and r2) under 3.0T and 9.4T magnetic fields in water and HSA. It is filed as physicochemical.
Data set [5] deals with T1, HSA (Homo sapiens, UniProt P02768). Briefly: HSA binding affinity by ultrafiltration analysis.
T1 sequence (P02768 25-609): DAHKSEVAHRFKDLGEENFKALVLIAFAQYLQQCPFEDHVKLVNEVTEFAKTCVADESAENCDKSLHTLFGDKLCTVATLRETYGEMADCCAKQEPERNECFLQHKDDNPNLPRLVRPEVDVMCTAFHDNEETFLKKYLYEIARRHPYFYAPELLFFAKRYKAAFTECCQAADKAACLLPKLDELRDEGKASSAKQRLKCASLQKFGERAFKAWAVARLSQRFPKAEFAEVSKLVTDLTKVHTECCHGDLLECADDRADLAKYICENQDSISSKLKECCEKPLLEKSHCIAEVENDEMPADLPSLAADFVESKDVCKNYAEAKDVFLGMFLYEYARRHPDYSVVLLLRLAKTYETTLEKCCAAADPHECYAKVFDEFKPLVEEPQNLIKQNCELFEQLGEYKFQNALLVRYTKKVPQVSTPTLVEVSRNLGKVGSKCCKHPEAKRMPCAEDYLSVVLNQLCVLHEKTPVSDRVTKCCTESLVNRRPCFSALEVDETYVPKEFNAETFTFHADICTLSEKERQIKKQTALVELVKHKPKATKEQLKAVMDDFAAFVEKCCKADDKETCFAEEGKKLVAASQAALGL
Protocol: (§1) The HSA binding affinity was measured using ultrafiltration analysis.
The subject of data set [6] is C6 glioma. Briefly: MR imaging of brain cancer model. Format: in vivo. As to conditions: 0.1 mmol/kg Gd-DO3A-butrol versus 0.05 mmol/kg Gd-PCTA-Ach; FIG. 8A. As to the method:
After a brain cancer model was prepared using C6 glioma which is a brain cancer cell, 0.1mmol/kg of Gd-PCTA-Ach 0.1mmol/kg, Gd-PCTA-Ach 0.05mmol/kg, and Gd-DO3A-butrol were injected thereto, respectively, to obtain MR images (FIG. 8A) and CNR graphs (FIG. 8B) according to the MR images, and the results are shown in FIG. 8.

The subject of data set [7] is liver. The data set can be described thus: 3.0T MR imaging of liver and gallbladder in normal mice versus commercial contrast agents. It is filed as in vivo. As to conditions: 5min to 120min after injection, FIG. 9.
For data set [8], the target named is T1, HSA.
Protocol: as §1

Like-named read-outs stand apart in the source and are kept apart here.

These results are taken from EP4582432A1, “NOVEL COMPOUND AND MRI CONTRAST AGENT COMPRISING SAME” (Theranocure Co., Ltd., priority 2022, dated 2024).

Turning to `O=C(CCC(C(=O)[O-])N1CCN(C(CCC(=O)NCC(O)CO)C(=O)[O-])Cc2cccc(n2)CN(C(CCC(=O)NCC(O)CO)C(=O)[O-])CC1)NCC(O)CO.[Gd+3]` (stereo not shown) [Gadopiclenol], the “log P (log Co/Cw)” value in data set [1] is -4.2. Moreover, in data set [2], the r1 is 11.3 mM⁻¹ s⁻¹.

Consider Gd-DO3A-butrol, for which the “log P (log Co/Cw)” value in data set [3] is on record as -3.1. The r1 in data set [4] (3.0-T, HSA) amounted to 4.3 ± 0.1 mM⁻¹ s⁻¹; in data set [4] (3.0-T, Water) it was 4.3 ± 0.2 mM⁻¹ s⁻¹; in data set [4] (9.4-T, Water), 4.9 ± 0.9 mM⁻¹ s⁻¹. Besides, the r2 came out at 6.5 ± 0.1 mM⁻¹ s⁻¹ in data set [4] (3.0-T, HSA); 5.5 ± 0.02 mM⁻¹ s⁻¹ in data set [4] (3.0-T, Water); 6.4 ± 1.1 mM⁻¹ s⁻¹ in data set [4] (9.4-T, Water). In addition, the “HSA bindin g affinity (%)” value in data set [5] was determined as 3.4%. In data set [6], the “brightness in MR image” value is “comparable”.

In the case of `O=C([O-])CN(CCN(CC(=O)[O-])CC(=O)[O-])CCN(CC(=O)[O-])C(COCc1ccccc1)C(=O)[O-].[Gd+3]` (stereo not shown) [Gd-BOPTA], the “gallbladder contrast enhancement over time” value in data set [7] is “initially enhanced, and then was observed to decrease slowly”. For the same compound, the r1 in data set [4] (3.0-T, HSA) was determined as 5.8 ± 0.2 mM⁻¹ s⁻¹; in data set [4] (3.0-T, Water) it was 5.1 ± 0.02 mM⁻¹ s⁻¹; in data set [4] (9.4-T, Water), 6.1 ± 1.1 mM⁻¹ s⁻¹. Besides, the r2 in data set [4] (3.0-T, HSA) was 9.0 ± 0.3 mM⁻¹ s⁻¹; in data set [4] (3.0-T, Water) it was 6.8 ± 0.4 mM⁻¹ s⁻¹; in data set [4] (9.4-T, Water), 8.1 ± 1.4 mM⁻¹ s⁻¹. Besides, the “HSA bindin g affinity (%)” value in data set [8] stood at 15.0%.

For `CCOc1ccc(C[C@@H](CN(CCN(CC(=O)[O-])CC(=O)[O-])CC(=O)[O-])N(CC(=O)[O-])CC(=O)[O-])cc1.[Gd+3].[Na+].[Na+]` [Gd-EOB-DTPA], in data set [3], the “log P (log Co/Cw)” value was -2.9. In addition, the “gallbladder contrast enhancement over time” value in data set [7] is “initially enhanced, and then was observed to decrease slowly”. Besides, the r1 stood at 7.7 ± 0.1 mM⁻¹ s⁻¹ in data set [4] (3.0-T, HSA); 6.5 ± 0.04 mM⁻¹ s⁻¹ in data set [4] (3.0-T, Water); 7.4 ± 1.4 mM⁻¹ s⁻¹ in data set [4] (9.4-T, Water). Moreover, the r2 stood at 11.1 ± 0.04 mM⁻¹ s⁻¹ in data set [4] (3.0-T, HSA); 7.3 ± 0.4 mM⁻¹ s⁻¹ in data set [4] (3.0-T, Water); 10.7 ± 1.9 mM⁻¹ s⁻¹ in data set [4] (9.4-T, Water). Further, the “HSA bindin g affinity (%)” value in data set [5] was found to be 8.9%.
